Test results from patent US9254290B2, “Method for screening diabetes treating agent” (GWANGJU INSTITUTE OF SCIENCE AND TECHNOLOGY, priority 2010, dated 2016).

Tests used:
3T3-L1 adipocytes = experiment: 6-NBDG uptake screening in 3T3-L1 adipocytes, 96-well, fluorescent microplate reader; format: cell-based, murine; details: 100 nM insulin or 250 μM zinc sulfate; 6-NBDG vs 2-NBDG
Experimental: 3T3-L1 murine fibroblasts were maintained in proliferation media, consisting of DMEM supplemented with 10% FBS, 50 units/mL penicillin and 50 μg/mL streptomycin. 3T3-L1 fibroblasts were induced to differentiate into adipocytes as follows: 48 h postconfluent cells (designated day 0) were cultured in DMEM supplemented 10% FBS, 0.5 mM 3-isobutyl-1-methyl-xanthine, 2 μg/ml dexamethasone, 1 μg/ml insulin, 50 units/mL penicillin and 50 μg/mL streptomycin for 2 days. Every 2 days thereafter, the cells were incubated with fresh DMEM supplemented with 10% FBS and 1 μg/ml insulin. 3T3-L1 adipocytes were used for experiments 8 days after the induction of differentiation.
Three cell lines were chosen to test if NBDG can be used to detect insulin-stimulated glucose uptake in a 96 well plate culture format, which is more suitable for cell-based screening to identify novel insulin mimetic compounds. The cell lines chosen were Huh7 hepatocytes, C2C12 myoblasts and 3T3-L1 pre-adipocytes, which represent the major body tissue types that are sensitive to the action of insulin (liver, muscle and fat). 10^4 cells/well were seeded in a black, 96 well tissue culture plate (BD Falcon, NJ, USA). C2C12 myoblasts and 3T3-L1 adipocytes were induced to undergo differentiation into myotubes and adipocytes, respectively, to compare the NDBG signal in proliferating and differentiated cells. NBDG uptake was measured following treatment with 10 nM or 100 nM insulin, and 1 μM or 10 μM rosiglitazone (an insulin-sensitizing agent), using a fluorescent microplate reader (SpectraMAX GeminiXS and SoftMax Pro V5 software, Molecular Devices, CA, USA). Cells were cultured in serum-free low glucose culture media for 3 h before the addition of insulin.
To test the NBDG-based screening system, a combinatorial chemical library of 576 triazine-based small molecules was screened at a concentration of 5 μM. The combinatorial library was provided by Professor Young-Tae Chang, Department of Chemistry, National University of Singapore.
To test if this screening protocol could detect new insulin mimetic compounds, a combinatorial chemical library of 576 triazine-based small molecules was screened.

GLUT 1 = target: T1, GLUT 1 (Homo sapiens, UniProt P11166); details: cited from earlier work
T1 sequence (P11166 1-492): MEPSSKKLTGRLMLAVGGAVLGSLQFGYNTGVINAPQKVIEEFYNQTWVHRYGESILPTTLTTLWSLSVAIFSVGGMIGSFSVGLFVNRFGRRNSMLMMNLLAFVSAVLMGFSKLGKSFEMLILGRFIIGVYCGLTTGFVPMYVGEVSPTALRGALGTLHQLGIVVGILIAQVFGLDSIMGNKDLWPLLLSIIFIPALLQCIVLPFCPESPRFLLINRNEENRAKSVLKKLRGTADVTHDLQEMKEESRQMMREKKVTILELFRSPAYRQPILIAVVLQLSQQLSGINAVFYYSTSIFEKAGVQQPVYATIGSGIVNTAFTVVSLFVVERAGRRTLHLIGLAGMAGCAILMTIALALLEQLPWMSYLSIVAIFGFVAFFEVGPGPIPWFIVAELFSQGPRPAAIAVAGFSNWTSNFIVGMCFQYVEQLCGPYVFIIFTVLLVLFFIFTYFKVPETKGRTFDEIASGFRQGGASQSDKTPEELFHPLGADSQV

Compound: O=[N+]([O-])c1ccc(NCC2OC(O)C(O)C(O)[C@@H]2O)c2nonc12 (some centres unmarked) [6-NBDG, 6-(N-(7-nitrobenz-2-oxa-1,3-diazol-4-yl)amino)-6-deoxyglucose, reference compound]
- fluorescent signal of probe after insulin-stimulated uptake (3T3-L1 adipocytes): produced a greater fluorescent signal than 2-NBDG
- affinity for GLUT 1 relative to glucose (GLUT 1): 300 times
